The subject of test [1] is male ddY mouse. The test can be described thus: Analgesic activity test by mouse acetic acid writhing method. The format is in vivo. Conditions: subcutaneous, 15 minutes before i.p. 0.6% acetic acid, dosage to halve the number of writhing response. On the procedure:
To each male ddY mouse, each test compound or the vehicle was subcutaneously administered in an administration volume of 0.1 mL/10 g body weight. Fifteen minutes later, 0.1 mL/10 g body weight of aqueous 0.6% (v/v) acetic acid solution was intraperitoneally administered. From 10 minutes after the administration of the acetic acid solution, the number of writhing response (i.e., the behavior to bend the body backward and/or twist the body) during 10 minutes was counted, and the analgesic activity was evaluated based on the number of writhing response. […] 10% Aqueous dimethylsulfoxide (DMSO) was used as a vehicle for test compounds 1, 2, 3, 4, 5, 6, 7, 8, 9, 10, 11, 12, 13, 14, 15, 16, 17, 18, 19, 20, 21 and 22. 0.1% Citric acid/aqueous 5% xylitol was used as a vehicle for test compounds 10f.
(In writhing tests, fewer writhes than in controls are read as antinociception.)

Test [2] concerns female Sprague-Dayley rats. The test can be described thus: Activity to relieve cystalgia caused by hyperextension of bladder, myoelectric activity of external oblique abdominal muscle as index. The format is in vivo, rat. To be noted: iv; for Rate of Inhibition of Myoelectric Activity (Number of Spikes) of External Oblique Abdominal Muscle (vs. before administration, %): anesthetized rats, mean ± standard error. How it is done: The activity of Compound 10f to relieve cystalgia was evaluated using the myoelectric activity of external oblique abdominal muscle in hyperextension of bladder of anesthetized rats as an index of the cystalgia. In the experiments, 14 to 15-week old female Sprague-Dayley rats (CLEA Japan, Inc.) weighing 300 to 360 g were used.
Under halothane (2.5-4%) anesthesia, a polyethylene catheter (PE-50) for cystometry was inserted into the bladder transurethrally. Further, a polyethylene catheter (PE-100) for filling physiological saline was inserted into the bladder from the apex of bladder dome. […] A catheter for drug administration was indwelled in the femoral vein. The skin in the lateral ventral part was incised and a bipolar electrode for electromyographic measurement was inserted into the external oblique abdominal muscle and indwelled therein. A reservoir preliminarily filled with physiological saline was connected to the catheter indwelled in the bladder and held at a prescribed height to extend the bladder. The extension stimulus was continued for 20 seconds. In cases where the stimulation is repeatedly given, the interval between stimulation was 3 minutes. A bipolar electrode (needle electrode for electroencephalography, NIHON KOHDEN) was connected to an electromyograph amplifier (EMG100C, Biopac Systems), and a high cut filter (5 kHz) and low cut filter (100 Hz) were applied. Thereafter, the signals were taken into an AD converter (MP-150WSW, Biopac Systems) and into a computer at 1 kHz, and the myoelectric activity was recorded using the special software (AcqKnowledge 3.8.1, Biopac Systems). The intravesical pressure was measured using a pressure transducer (AP641G, NIHON KOHDEN) and a general purpose amplifier (DA100C, Biopac Systems). The halothane level was adjusted such that a stable myoelectric activity was obtained by extension at a pressure of 50 cmH2O, and then the drug was intravenously administered. Thereafter, hyperextension of bladder was repeated for at least 20 minutes.
The drug was dissolved in aqueous 5% xylitol-0.02% citric acid solution, and the administration volume was 0.5 mL/kg. The mean of the number of spikes during the twice hyperextension of bladder immediately before the drug administration was defined as the value before drug administration. Taking the value before the drug administration as 100%, the change in the number of spikes after administration of the drug was normalized. The mean of the change in the number of spikes by the consecutive three times hyperextension carried out immediately before or after 15-minutes time point from the drug administration was calculated, and the drug effect was analyzed by Williams test.

For test [3], the system named is male ddY mouse. Conditions: literature, Pain. Vol 50, 223-229 (1992); cited from earlier work.

The source of these data is patent US8470845B2, “Analgesic and methods of treating pain” (Toray Industries, Inc., priority 2004, dated 2013).

Structures are written as SMILES. Counter-ions that a name gives are not always drawn. Like-named read-outs stand apart in the source and are kept apart here.

What is called ED50 is the midpoint of the dose-response relation.

Compound `O=C1c2ccccc2C(=O)N1[C@@H]1CC[C@@]2(O)[C@H]3Cc4ccc(O)c5c4[C@@]2(CCN3CC2CC2)[C@H]1O5` [Compound 10f, N-(17-cyclopropylmethyl-4,5α-epoxy-3,14-dihydroxy-morphinan-6β-yl)-phthalimide] yielded an ED50 in the test with male ddY mouse [1] of 0.037 mg/kg. Further, the “Rate of Inhibition of Myoelectric Activity (Number of Spikes) of External Oblique Abdominal Muscle (vs. before administration, %)” value was found to be 5.9 ± 11.5% in test [2] (0.003 mg/kg), 42.4 ± 21.1 % in test [2] (0.01 mg/kg) and 64.3 ± 17.2 % in test [2] (0.03 mg/kg). For the same compound, the “inhibition of the myoelectric activity (in words)” value in test [2] (0.003-0.03 mg/kg) was “dose-dependently and significantly inhibited”. In addition, in test [2] (inhibition of myoelectric activity), the minimum effective dose is 0.01 mg/kg.

As to `CN1CC[C@]23c4c5ccc(O)c4O[C@H]2[C@@H](O)C=C[C@H]3[C@H]1C5` [morphine], the “effect on pain in PGF2α-induced allodynia model (in words)” value in the test with male ddY mouse [3] is listed as “ineffective”.

Regarding `O=C(O)C(O)C(O)C(=O)O.Oc1ccc2c3c1O[C@H]1[C@H](N4CCCC4)CC[C@@]4(O)[C@@H](C2)N(CC2CC2)CC[C@]314` [Compound 20, 17-cyclopropylmethyl-4,5α-epoxy-6β-(pyrrolidine-1-yl)-morphinan-3,14-diol.tartaric acid salt, reference compound], in the test with male ddY mouse [1], the ED50 is listed as over 10 mg/kg.

Consider `O=C1C(Cc2ccccc2)CCN1[C@H]1CC[C@@]2(O)[C@H]3Cc4ccc(O)c5c4[C@@]2(CCN3CC2CC2)[C@H]1O5` (mixture of isomers) [Compound 4, 1-(17-cyclopropylmethyl-4,5α-epoxy-3,14-dihydroxymorphinan-6α-yl)-3-benzyl-pyrrolidine-2-one (diastereomer mixture).tartaric acid salt], for which the 50% effective dose (ED50) with male ddY mouse [1] (Mus musculus, read-out: ED50) was 0.26 mg/kg.

In the case of `O=C1C=CC(=O)N1[C@@H]1CC[C@@]2(O)[C@H]3Cc4ccc(O)c5c4[C@@]2(CCN3CC2CC2)[C@H]1O5` [Compound 22, N-(17-cyclopropylmethyl-4,5α-epoxy-3,14-dihydroxy-morphinan-6β-yl)-maleic imide.tartaric acid salt], the median effective dose (ED50) with male ddY mouse [1] (Mus musculus, read-out: ED50) worked out at 2.18 mg/kg.

As to `Cc1cccc2c1C(=O)N([C@@H]1CC[C@@]3(O)[C@H]4Cc5ccc(O)c6c5[C@@]3(CCN4CC3CC3)[C@H]1O6)C2=O` [Compound 15, N-(17-cyclopropylmethyl-4,5α-epoxy-3,14-dihydroxy-morphinan-6β-yl)-3-methylphthalimide.tartaric acid salt], in the test with male ddY mouse [1] (Mus musculus, read-out: ED50), the ED50 came out at 0.03 mg/kg.

Turning to `Cl.O=C1CCCN1[C@@H]1CC[C@@]2(O)[C@H]3Cc4ccc(O)c5c4[C@@]2(CCN3CC2CC2)[C@H]1O5` [Compound 1, 1-(17-cyclopropylmethyl-4,5α-epoxy-3,14-dihydroxy-morphinan-6β-yl)pyrrolidine-2-one-hydrochloric acid salt], in the test with male ddY mouse [1] (Mus musculus, read-out: ED50), the ED50 was found to be 2.62 mg/kg.

For the compound `O=C1c2cc3ccccc3cc2C(=O)N1[C@@H]1CC[C@@]2(O)[C@H]3Cc4ccc(O)c5c4[C@@]2(CCN3CC2CC2)[C@H]1O5` [Compound 16, N-(17-cyclopropylmethyl-4,5α-epoxy-3,14-dihydroxy-morphinan-6β-yl)naphthalenedicarboxylic imide.hydrochloric acid salt], the ED50 in the test on male ddY mouse [1] (Mus musculus, read-out: ED50) is 0.31 mg/kg.

`O=C1c2cc(Cl)c(Cl)cc2C(=O)N1[C@@H]1CC[C@@]2(O)[C@H]3Cc4ccc(O)c5c4[C@@]2(CCN3CC2CC2)[C@H]1O5` [Compound 17, N-[17-(cyclopropylmethyl)-4,5α-epoxy-3,14-dihydroxymorphinan-6β-yl]]-4,5-dichlorophthalimide.tartaric acid salt]: in the test on male ddY mouse [1] (Mus musculus, read-out: ED50), the ED50 turned out to be 0.27 mg/kg.

As for `O=C1c2cccc(F)c2C(=O)N1[C@@H]1CC[C@@]2(O)[C@H]3Cc4ccc(O)c5c4[C@@]2(CCN3CC2CC2)[C@H]1O5` [Compound 14, N-(17-cyclopropylmethyl-4,5α-epoxy-3,14-dihydroxy-morphinan-6β-yl)-3-fluorophthalimide.tartaric acid salt], the ED50 in the test on male ddY mouse [1] (Mus musculus, read-out: ED50) is 0.034 mg/kg.

`O=C(O)C(O)C(O)C(=O)O.O=C1C2=C(CCCC2)C(=O)N1[C@@H]1CC[C@@]2(O)[C@H]3Cc4ccc(O)c5c4[C@@]2(CCN3CC2CC2)[C@H]1O5` [Compound 19, N-(17-cyclopropylmethyl-4,5α-epoxy-3,14-dihydroxy-morphinan-6β-yl)-3,4,5,6-tetrahydrophthalimide.tartaric acid salt] had an ED50 in the test with male ddY mouse [1] of 0.032 mg/kg.

In the case of `O=C1c2ccc(Cl)cc2C(=O)N1[C@@H]1CC[C@@]2(O)[C@H]3Cc4ccc(O)c5c4[C@@]2(CCN3CC2CC2)[C@H]1O5` [Compound 12, N-(17-cyclopropylmethyl-4,5α-epoxy-3,14-dihydroxy-morphinan-6β-yl)-4-chlorophthalimide.tartaric acid salt], in the test on male ddY mouse [1] (Mus musculus, read-out: ED50), the ED50 stood at 0.29 mg/kg.
